In patent publication EP2386565A2, “Compounds and methods to inhibit or augment an inflammatory response” (Cambridge Enterprise Ltd., priority 1999, dated 2000):
Positions of bridges follow the written chain, without caps; N, C: chain ends. Non-standard residues stand in square brackets, D forms with d. Residues, ends and D or L forms follow the SMILES beside them.

What was measured:
LPS-induced serum TNF-α = experiment: Endotoxemia model (LPS i.p.); assay type: in vivo, mice
Experimental: A mouse endotoxemia model is used to screen agents of the invention for in vivo functional anti-inflammatory activity in a rapid manner. Female CD-1 mice are injected i.p. (ventral abdomen) with 583 µg LPS. mRNA and protein levels of TNF-α, IFN-γ, IL-4 and MCP-1 and other markers of the inflammatory response are then determined. Thirty minutes prior to LPS administration, the animals were administered one of three different doses of CRD-Leu4Ile11Cys13peptide 3(3-12)[MCP-1] as an intravenous loading dose and a subcutaneous bolus dose (on dorsum). PBS treated animals with and without LPS administration were positive and negative controls. Two hours later, animals were euthanized and serum collected. Serum was separated from the cell pellet and frozen until ELISA analysis of cytokine levels. Lung and liver samples were collected for mRNA analyses and histopathology. […] Serum levels and mRNA levels of IL-4, IFN-γ and MCP-1 are also determined.
Each animal received a pretreatment (200 ul) by sub-cutaneous injection into the scruff at the back of the neck. All pre-treatment agents were administered at 1 mg per animal (approximately 40-50 mg/kg). After 30-45 minutes, animals in groups 2 through 6 received 750 µg bacterial lipopolysaccharide (LPS) in 300 µl PBS by intraperitoneal injection. Animals in group 1 received PBS vehicle alone.
After 3 hours (2 hours post-LPS), all animals were sacrificed by terminal anaesthesia followed by cardiac puncture. Approximately 1 ml of blood was withdrawn and serum was prepared. Blood was allowed to clot at room temperature for approximately 2 hours, then the clot was spun out and the serum aliquoted and stored at -20°C until tested. Serum from each animal was assayed in duplicate for TNF-α using the Quantikine M kit (R&D Systems) calibrated by interpolation of the standard curve.

[1] = system: TGFβ1 induced human monocyte migration; experiment: Migration of freshly prepared peripheral blood monocytes, TGFβ1; assay type: cell-based
Experimental: Agents may also be screened in a chemotactic assay which employs human neutrophils, eosinophils, mast cells, basophils, platelets, lymphocytes or monocytes. For monocytes, 9 mls of fresh blood are transferred to a tube containing 1 ml of 3.8% sodium citrate, and left at room temperature for 15 minutes. Five mls of this anti-coagulated blood are carefully layered over 3.5 ml Polymorphprep® (Nycomed Pharma, Oslo), and centrifuged at 500 g for 35 minutes per the manufacturer's instructions. The top band at the sample/medium interface contains monocytes. The monocytes are carefully removed with a glass pipette, and reconstituted to the original volume (5 ml). The cells are washed with PBS plus 10% fetal calf serum, and centrifuged at 400 g for 10 minutes. The washing step is repeated three times before the cells are counted. Cells are resuspended at 1 × 10^7 cells/ml in RPMI-1640 + 10% fetal calf serum (FCS). The monocytes are cultured for two days at 37°C in a humidified atmosphere of 5% CO2-
On day 2, the cells are counted, spun down, and reconstituted to 1 × 10^7 cells/ml in Gey's balanced salt solution + 1 mg/ml bovine serum albumin (BSA). […]

| Structure (SMILES) | serum MCP-1 and liver MCP-1 RNA after LPS (in words) (LPS-induced serum TNF-α; mouse, in vivo) | serum TNF-α after LPS (in words) (LPS-induced serum TNF-α; mouse, in vivo) | serum TNF-α after LPS (in words) (LPS-induced serum TNF-α; mouse, in vivo, listed as CRD-Leu4Ile11Cys13peptide 3(3-12)[MCP-1]) | half-maximal dose for inhibition of LPS-stimulated TNF-α (LPS-induced serum TNF-α; s.c.) | % inhibition at 100 µM versus TGFβ1 [1] |
| --- | --- | --- | --- | --- | --- |
| CC[C@@H](C)[C@H]1NC(=O)[C@@H](CCC(N)=O)NC(=O)[C@H](N)CSSC[C@H](C(N)=O)NC(=O)[C@@H](CC(C)C)NC(=O)[C@@H](CC(=O)O)NC(=O)[C@H]2CCCN2C(=O)[C@@H](CCCCN)NC(=O)[C@@H](CCC(N)=O)NC(=O)[C@@H](CCCCN)NC(=O)[C@@H](Cc2c[nH]c3ccccc23)NC1=O (H-[dC][dQ][dI][dW][dK][dQ][dK][dP][dD][dL][dC]-NH2; disulfide 1-11) | no modulation | dose-dependent inhibition | dose dependent decrease | approximately 100 µg per animal | – |
| CC[C@H](C)[C@H](NC(=O)[C@H](C)NC(=O)[C@H](CC(=O)O)NC(=O)[C@@H]1CCCN1C(=O)[C@H](CCC(N)=O)NC(=O)[C@H](C)N)C(=O)N[C@@H](CC(N)=O)C(=O)N[C@@H](C)C(=O)N1CCC[C@H]1C(=O)N[C@H](C(=O)N[C@H](C(=O)N[C@@H](CS)C(=O)N[C@@H](CS)C(=O)O)[C@@H](C)O)C(C)C [Peptide 1] (H-AQPDAINAPVTCC-OH; N-terminus and C-terminus assumed) | – | – | – | – | n.s. |
